We go through 2 substances from patent publication US20240247253A1, “PRODUCTION METHOD OF POLYPEPTIDE, TAG, EXPRESSION VECTOR, EVALUATION METHOD OF POLYPEPTIDE, PRODUCTION METHOD OF NUCLEIC ACID DISPLAY LIBRARY, AND SCREENING METHOD” (FUJIFILM Corporation, priority 2021, published 2024).

For assay [1], the system named is cell-free peptide synthesis system derived from Escherichia coli. The assay is described as follows: Cell-free biosynthesis of DHFR partial sequence-HiBiT fusion proteins with tag, 10 minutes, Nano Glo HiBiT quantification. The assay is classed as biochemical. An excerpt:
Regarding the effect of increasing the biosynthesis amount of the polypeptide by the tag (VKKTKT tag) represented by SEQ ID NO: 27, the influence of the length of the polypeptide to be synthesized was examined. The polypeptide to be biosynthesized is a fusion protein containing a partial sequence of dihydrofolate reductase (DHFR) and a luminescent (HiBiT) tag.
A fusion protein in which a partial sequence of DHFR and a HiBiT tag were linked in this order was designed. Gly-Gly-Ser was inserted as a spacer between the partial sequence of DHFR and the HiBiT tag. The amino acid sequences of these fusion proteins are set forth in SEQ ID NOs: 113 and 114, and these fusion proteins are a fusion protein (80 amino acid length) of the amino acids ranging to the amino acid at position 66 from the N-terminal of DHFR with a HiBiT tag and a fusion protein (100 amino acid length) of the amino acids ranging to the amino acid at position 86 from the N-terminal of DHFR with a HiBiT tag. The base sequences encoding these fusion proteins are SEQ ID NOs: 115 and 116.
A base sequence encoding a tagged fusion protein in which methionine, a VKKTKT tag (SEQ ID NO: 27) or a SKIK tag (SEQ ID NO: 107), and a fusion protein (any of SEQ ID NO: 113 or 114) were linked in this order was designed. In this base sequence, a base sequence (SEQ ID NO: 73 or 110) encoding a VKKTKT tag or a SKIK tag is arranged immediately after the start codon ATG, and a base sequence (any of SEQ ID NO: 115 or 116) encoding a fusion protein is arranged immediately after the base sequence encoding the VKKTKT tag or the SKIK tag.
As a control example for evaluating the effect of the VKKTKT tag or the SKIK tag, a base sequence in which a base sequence (any of SEQ ID NO: 115 or 116) encoding each of fusion protein arranged immediately after the start codon ATG was designed.
The fusion protein was expressed using a cell-free peptide synthesis system similar to the cell-free peptide synthesis system used in Example 1 by setting the incubation time of biosynthesis to 10 minutes. The obtained fusion protein was quantified using Nano Glo HiBiT Lytic Detection System (Promega, N3040). The measurement was performed twice, and the average value of the amounts of the fusion protein was calculated. […] The control example of the reference value 1 has a form in which the base sequence (SEQ ID NO: 115 or 116) encoding the fusion protein is arranged immediately after the start codon ATG.

The test system is the same in assay [2]. In words: Cell-free biosynthesis of the integrin binding peptide fusion protein with tag, reaction time 10 minutes, ELISA. The assay is classed as biochemical. To be noted: for Biosynthesis amount of fusion protein: relative value, control without tag = 1, reaction time 10 minutes, fusion protein SEQ ID NO: 5, SKIK encoded by SEQ ID NO: 110. The method, then: The cell-free biosynthesis of the polypeptide was carried out in a translation solution containing a template DNA, PUREfrex 2.0 (GeneFrontier, PF201-0.25-5), and Aminoacyl tRNA (1). 1.25 μL (62.5 ng) of the template DNA prepared to 50 ng/μL, 2.5 μL of PUREfrex 2.0 Solution I, 0.25 μL of Solution II, 0.5 μL of Solution III, and 0.5 μL of Aminoacyl tRNA (1) were mixed and mixture was subjected to a reaction at 37° ° C. for 1 hour.
The amount of the biosynthesized polypeptide was measured by ELISA. 50 ng of Recombinant Human Integrin αVβ3 (R&D systems, 3050-AV-050) was immobilized in each well of a 96-well plate and blocked with Blocker Casein in PBS (Thermo, 37528), and then a cell-free biosynthesis solution diluted with Can Get Signal Immunoreaction Enhancer Solution I (TOYOBO, NKB-101) containing 5 mmol/L MgCl2 was added thereto, and the mixture was subjected to a reaction at room temperature for 3 hours. After washing with 5 mmol/L MgCl2/0.05% Tween 20-containing phosphate buffered saline (PBS), an anti-Myc antibody (Cell Signaling, 14038S) diluted with Can Get Signal Immunoreaction Enhancer Solution II (TOYOBO, NKB-101) was added thereto, and the mixture was subjected to a reaction at room temperature for 2 hours. After washing with PBS containing 5 mmol/L MgCl2/0.05% Tween 20, Super Signal ELISA Femto Substrate (Thermo, 37075) was added thereto, and the luminescence was measured. The amount of the fusion protein in the cell-free biosynthesis solution was calculated based on a calibration curve created from the fusion protein having a known concentration. The luminescence measurement was performed twice, and the average value of the amounts of the fusion protein was calculated. Table 2-1 and Table 2-2 show relative values of the biosynthesis amounts of respective fusion proteins in a case where the amount of the fusion protein of the control example was set to the reference value 1.
As a comparative control, a SKIK tag represented by SEQ ID NO: 107 was selected. The polypeptide to be biosynthesized is the fusion protein containing the integrin binding peptide, as in Example 1.
Using a template DNA including DNA sequences (SEQ ID NOs: 73 to 98) encoding VKKX tags represented by SEQ ID NOs: 27 to 52 produced in Example 1, and a DNA sequence (SEQ ID NO: 110) encoding a SKIK tag represented by SEQ ID NO: 107 produced in Example 2, the biosynthesis reaction was performed in the same manner as in Example 1 by setting the reaction time to 10 minutes. In the same manner in Example 1, the fusion protein was expressed by the cell-free peptide synthesis system and quantified by ELISA. The measurement was performed twice, and the average value of the amounts of the fusion protein was calculated. […] As control example used in Example 1, the control example of the reference value 1 has a form in which the base sequence (SEQ ID NO: 6) encoding the fusion protein is arranged immediately after the start codon ATG.

Where [3] appears, read: fusion protein SEQ ID NO 113, amino acid length 80, control without tag = 1.
Where [4] appears, read: fusion protein SEQ ID NO 114, amino acid length 100, control without tag = 1.

On to “SEQ ID NO: 27: VKKX tag, amino acid sequence VKKTKT (VKKX Tag)”, for which the entries for the “Biosynthesis amount of fusion protein” value in assay [1] (setting [3]), in assay [1] (setting [4]) and in assay [2] were 1.67, 1.24 and 12.81, respectively.

With “SEQ ID NO: 107: tag consisting of an amino acid sequence of SKIK, disclosed in WO2016/204198A; comparative control (SKIK Tag) [reference compound]”, the entries for the “Biosynthesis amount of fusion protein” value in assay [1] (setting [3]), in assay [1] (setting [4]) and in assay [2] were 1.13, 0.73 and 1.27, respectively. Besides, the “increase rate of expression level of the fusion protein” value in assay [2] (text of Example 3, incubation time of biosynthesis reaction 10 minutes) was determined as 1.3 times.
